Test results from patent US20260014144A1, “USE OF OV[…] PHARMACEUTICAL COMPOSITION THEREOF IN PREVENTION AND TREATMENT OF RENAL FIBROSIS” (ZHUJIANG HOSPITAL OF SOUTHERN MEDICAL UNIVERSITY, priority 2022, published 2026).
Structures can show the parent of a compound that is named as a salt.

Legend:
[1] = tested on: ischemia-reperfusion injury (IRI) RF animal model; test: Therapeutic effect of ACT004 in ischemia-reperfusion injury (IRI) renal fibrosis mouse model; format: in vivo; settings: IRI mice
Procedure: (§1) Sixty 8-week-old C57 mice (SPF grade) were supplied by the Laboratory Animal Center of Zhujiang Hospital, Southern Medical University, Guangzhou. Before the experiment, the animals were acclimated to the indoor environment for 7 days at a room temperature of 18-22° C. and a relative humidity of 65%. All mice had free access to water and were fed with regular feed (protein content: 3.14 mg/g).
Method for constructing IRI model: Mice were anesthetized intraperitoneally with tribromoethanol. An abdominal midline incision or dorsal incision was made. The left renal vein was isolated, while the renal artery was clamped using an arterial clip. The mice were placed on a constant-temperature pad at 37.5° C. for 30 min, and the incision was covered with PBS-moistened gauze. After 30 min, the arterial clip was released, and the abdomen was closed after the recovery of renal congestion was observed. Mice subjected to IRI surgery were randomly divided into the following 5 groups: an IRI group, an IRI+low-dose ACT004 (12.5 mg/kg·d) group, an IRI+medium-dose ACT004 (25 mg/kg·d) group, an IRI+high-dose ACT004 (50 mg/kg·d) group, and a sham group, with 6 mice in each group. Starting from day 4 after the surgery, intragastric administration was performed. The sham group and the IRI groups were given an equal volume of normal saline as a control treatment. On day 10 after the surgery, the right kidney was removed, and on day 11 day after the surgery, the left kidney tissues were collected.
(§2) According to the results of the preliminary experiment, the medium dose of ACT004 for mice was 25 mg/kg·d. Therefore, low-dose (12.5 mg/kg·d), medium-dose (25 mg/kg·d) and high-dose (50 mg/kg·d) groups were set. ACT004 was prepared into a solution using normal saline, and intragastrically administered once daily starting on day 4 after the surgery for a duration of 1 week. Mice in the sham, UUO and IRI groups were subjected to intragastric administration with an equal amount of normal saline for a duration of 1 week.
(§3) After 1 week of intragastric administration, kidney tissues were collected as follows: Anesthesia was conducted using single intraperitoneal injection of tribromoethanol at a concentration of 200 mg/kg. Blood was collected by enucleation, and serum was separated and stored at −20° C. or −70° C. An abdominal incision was made, and sterile gauze was used to move aside abdominal organs. Cold PBS was perfused through the heart until the organs turned white. Kidney tissues were then collected. The entire left kidney was weighed, then bisected along the median sagittal plane, and washed thoroughly with PBS, and the capsule was removed. The tissue was then fixed in 10% neutral formaldehyde buffer for subsequent pathological examination.
(§4) 2.2.1.4.1 Renal pathology: Masson staining was used to observe the renal pathological structures and collagen fiber deposition.
(§5) 2.2.1.4.2 Protein level detection: Ras GTPase superfamily member RALB, EMT-related index a-SMA, and fibrosis phenotype-related indexes Fibronectin and Collagen I.

[2] = tested on: unilateral ureteral obstruction (UUO) RF animal model; test: Therapeutic effect of ACT004 in unilateral ureteral obstruction (UUO) renal fibrosis mouse model; format: in vivo; settings: UUO mice
Procedure: as §1
Method for constructing UUO model: Under anesthesia with intraperitoneal injection of tribromoethanol, the surgical area for abdominal midline incision was shaved and disinfected. After making the abdominal midline incision, the left ureter was located, and the upper segment of the ureter was isolated. A complete ureteral obstruction was induced by double ligation using 4-0 silk sutures (UUO group). For mice in the sham group, the ureter was similarly exposed and isolated, but no ligation was performed. Layered suturing of the abdominal incision was performed, followed by disinfection with iodophor. Mice subjected to UUO surgery were randomly divided into the following 5 groups: a UUO group, a UUO+low-dose ACT004 (12.5 mg/kg·d) group, a UUO+medium-dose ACT004 (25 mg/kg·d) group, a UUO+high-dose ACT004 (50 mg/kg·d) group, and a sham group, with 6 mice in each group. Starting from day 4 after the surgery, intragastric administration was performed. The sham group and the UUO groups were given an equal volume of normal saline as a control treatment. On day 11 after the surgery, the left kidney tissues were collected.
as §2, §3, §4, §5

[3] = tested on: renal tubular epithelial cells (NRK); test: Effect of ACT004 on TGF-β1-induced EMT in renal tubular epithelial cells; format: cell-based, mouse
Procedure: The immortalized mouse-derived renal tubular epithelial cell line was provided by the Professor Nie Xiaoli's research team at the School of Traditional Chinese Medicine, Southern Medical University.
The addition of TGF-β1 was accompanied by the administration of different concentrations of ACT004 intervention (2.5 μM, 5 μM, and 10 μM). The cells were divided into the following 6 groups: a blank control group, a blank control+ACT004 (5 μM) group, a TGF-β1 model group, and groups for TGF-β1+ different concentrations of ACT004 intervention (2.5 μM, 5 μM, and 10 µM).
Protein level detection: Ras GTPase superfamily member RALB, EMT-related index α-SMA, and fibrosis phenotype-related indexes Fibronectin and Collagen I.

[4] = ACT004 12.5, 25, 50 mg/kg·d intragastric once daily from day 4 for 1 week, left kidney day 11, FIG. 1A
[5] = ACT004 intragastric 1 week, FIG. 1B
[6] = ACT004 intragastric 1 week, FIG. 1C, statistically significant (p<0.05)
[7] = ACT004 treatment groups, FIG. 3A

C/C1=C\[C@H]2OC(=O)[C@H](CN3CCN(C)CC3)[C@@H]2CC[C@]2(C)O[C@H]2CCC2=C[C@H](C1)OC2=O [ACT004, (1aS,4Z,7S,9E,10aS,13S,13aS,15aS)-9,15a-dimethyl-13-((4-methylpiperazin-1-yl)methyl)-1a,2,3,8,10a,13,13a,14,15,15a-decahydro-5H-4,7-(metheno) furo [2,3-f]oxireno [2,3-j][1]oxacyclopentadecine-5, 12 (7H)-dione fumarate]
Masson staining: renal interstitial expansion, extracellular matrix deposition, increased collagen fibers, inflammatory cell infiltration [1, 4]: significantly reduced
Immunohistochemical staining: expression of Fibronectin, Collagen I, and α-SMA in kidney tissue [1, 5]: inhibitory effect
Western blot: protein expression levels of Fibronectin, Collagen I, and α-SMA in kidney tissue [1, 6]: inhibit the progression of RF
Western blot: expression levels of p-Smad2, p-Smad3, p-Stat3, and p-NFκB in kidney tissues ([1]; ACT004 treatment groups, FIG. 2B): significantly reduced
Western blot: expression level of RALB in kidney tissues [1, 7]: significantly reduced
Masson staining: renal interstitial expansion, extracellular matrix deposition, increased collagen fibers, inflammatory cell infiltration [2, 4]: significantly reduced
Immunohistochemical staining: expression of Fibronectin, Collagen I, and α-SMA in kidney tissue [2, 5]: inhibitory effect
Western blot: protein expression levels of Fibronectin, Collagen I, and α-SMA in kidney tissue [2, 6]: inhibit the progression of RF
Western blot: expression levels of p-Smad2, p-Smad3, p-Stat3, and p-NFκB in kidney tissues ([2]; ACT004 treatment groups, FIG. 2A): significantly reduced
Western blot: expression level of RALB in kidney tissues [2, 7]: significantly reduced
Western blot: protein expression levels of Fibronectin, Collagen I, and α-SMA in TGFβ1-induced renal tubular epithelial cells ([3]; TGF-β1 10 ng/uL, 48 h, ACT004 2.5, 5, 10 μM, FIG. 1D, statistically significant (p<0.05)): inhibit the progression of RF
Western blot: expression levels of p-Smad2, p-Smad3, p-Stat3, and p-NFκB in renal tubular epithelial cells induced by TGF-β1 ([3]; different concentrations of ACT004, TGF-β1 induction for 1 h, FIG. 2C, statistically significant): reduced
